Test results published in US7973147B2, “K04-0144 substance and a process for production thereof” (The Kitasato Institute, priority 2006, dated 2011).
“Also recorded” adds a separate entry of the source. Where two headings read alike, the source gives them in different places.

Key:
[1] = tested on: MRSA (Clinical isolate, the Kitasato Hospital, Japan); assay: Enhancing action of K04-0144D substance on antibiotic activities, broth microdilution method; format: cell-based, methicillin-resistant Staphylococcus aureus; conditions: for Ratio (−/+K04-0144D): MIC alone / MIC with K04-0144D substance 16 μg/ml; for MIC: Staphylococcus aureus, MRSA
[2] = tested on: methicillin-resistant Staphylococcus aureus (MRSA) K24 strain; assay: Enhancing action on activity of imipenem by paper disc method; format: cell-based
Experimental: Clinical isolate of methicillin-resistant Staphylococcus aureus (MRSA) K24 strain was used as a test microorganism. After the strain of MRSA K24 was cultured in Mueller-Hinton broth (2.1% w/v) (DIFCO) at 37° C. for 20 hours, the strain was suspended to the concentration corresponding to 0.5 Mc FARAND (about 10^8 CFU/ml) in the same medium. The suspension was smeared on MHA medium (Mueller-Hinton broth 2.1% (w/v), agar 1.5%) and a medium of the same composition containing imipenem (Tienem for Intramuscular Injection, 0.5 g, Banyu Pharmaceutical Co., Ltd., Japan) with a concentration without affecting the growth of test microorganisms, i.e. final concentration of 10 μg/ml. Smearing was performed according to the method of National Committee for Laboratory Standard, the U.S. (NCCLS), by using sterilized cotton-tipped swab (Kawamoto Sangyo Co., Ltd., Japan).

Solubility in solvent = format: physicochemical
[3] = antibiotic alone, without K04-0144D substance, read-out: Minimum Inhibitory Concentration (−)
[4] = combined use with K04-0144D substance 16 μg/ml, read-out: Minimum Inhibitory Concentration (+)

SMILES	enhancing action of K04-0144D substance on the antibiotic's activity ([1]; K04-0144D substance 16 μg/ml)	Ratio (−/+K04-0144D) [1]	MIC [1, 3] [µg/mL]	MIC [1, 4] [µg/mL]	Diameter of inhibition ring ([2]; 1 μg/6 mm disc, Imipenem (10 μg/ml) (+)) [mm]	Diameter of inhibition ring ([2]; 1 μg/6 mm disc, Imipenem (10 μg/ml) (−))	Diameter of inhibition ring ([2]; 10 μg/6 mm disc, Imipenem (10 μg/ml) (+)) [mm]	Diameter of inhibition ring ([2]; 10 μg/6 mm disc, Imipenem (10 μg/ml) (−)) [mm]	Solubility in solvent (Solubility in solvent)
[H]/N=C(/N)N[C@H]1[C@H](O)[C@@H](O)[C@H](O[C@@H]2O[C@@H](C)[C@](O)(C=O)[C@H]2O[C@@H]2O[C@@H](CO)[C@H](O)[C@@H](O)[C@@H]2NC)[C@@H](N/C(N)=N\[H])[C@@H]1O [Streptomycin, streptomycin]	no enhancing action	2	2	1					
C[C@@H](O)[C@H]1C(=O)N2C(C(=O)O)=C(SCCN=CN)C[C@H]12 [Imipenem, imipenem]		1024	32	0.03					
C=C/C(C)=C/CC1C2(C)CCCC(C)(C)C2CC(O)C1(O)CSCC(NC(C)=O)C(=O)O (stereo not drawn) [K04-0144D substance]					15	did not exhibit an inhibitory ring	26	14	Soluble in methanol and water acetonitrile; also recorded: Insoluble in chloroform and hexane ethyl acetate
